This passage reports IC50 results from US20250064789A1, “KETOAMIDE DERIVATIVES AND PHARMACEUTICAL USES THEREOF” (priority 2022, published 2025).

In one assay the target is recombinant SARS-CoV-2 M^pro (Severe acute respiratory syndrome coronavirus 2 (2019-nCoV) (SARS-CoV-2), UniProt P0DTD1). In words: Inhibition of SARS-CoV-2 M^pro enzyme activity (fluorescent substrate assay). The assay is classed as biochemical. As to conditions: inhibition of SARS-CoV-2 M^pro enzyme activity; values given in μM; read-out: IC50.
The term IC50 denotes the concentration at which inhibition is half-maximal. Turning to `O=C(NCc1ccccn1)C(=O)[C@@H](Cc1ccccc1)NC(=O)C1(NC(=O)N2CCC(F)(F)CC2)CC1` [Compound 300], the IC50 came to 2.43 ± 0.04 µM. `C[C@@H](NC(=O)C1CCC(F)(F)CC1)C(=O)NCC(=O)C(=O)NCc1ccccn1` [Compound 334]: the IC50 was above 5 µM. Turning to `COc1cccnc1CNC(=O)C(=O)[C@@H](Cc1ccccc1)NC(=O)[C@@H](C)NC(=O)C1CCC(F)(F)CC1` [Compound 339], the IC50 was 6.13 ± 0.22 µM. Regarding `C[C@@H](NC(=O)C1CCC(F)(F)CC1)C(=O)N[C@H](Cc1ccccc1)C(=O)C(=O)NCc1ncccc1Cl` [Compound 341], the IC50 worked out at 11.5 ± 3.79 µM. Consider `C[C@@H](NC(=O)C1CCC(F)(F)CC1)C(=O)N[C@H](Cc1ccccc1)C(=O)C(=O)NCc1c[nH]cn1` [Compound 346], for which the IC50 is above 2.5 µM. The same measure, in the same setting: under `C[C@@H](NC(=O)C1CCC(F)(F)CC1)C(=O)N[C@H](Cc1ccccc1)C(=O)C(=O)NCc1nccn1C` [Compound 347] stands above 2.5 µM; under `Cc1nc(CNC(=O)C(=O)[C@@H](Cc2ccccc2)NC(=O)[C@@H](C)NC(=O)C2CCC(F)(F)CC2)cs1` [Compound 351], 1.16 ± 0.32 µM; under `C[C@@H](NC(=O)C1CCC(F)(F)CC1)C(=O)N[C@H](Cc1ccccc1)C(=O)C(=O)NCc1ncco1` [Compound 352], 2.5 ± 0.29 µM. With `C[C@@H](NC(=O)C1CCC(F)(F)CC1)C(=O)N[C@H](Cc1ccccc1)C(=O)C(=O)NCc1nc2ccccc2s1` [Compound 355], the IC50 is above 2.5 µM.

The assay is the same for the next values; noted with them: inhibition of SARS-CoV-2 M^pro enzyme activity; values in nM; read-out: IC50.
`O=C(NC1CCC(F)(F)CC1)NC1(C(=O)N[C@H](Cc2ccccc2)C(=O)C(=O)NCc2ccccn2)CC1` [Compound 299]: the IC50 was 0.0157 ± 0.0001 µM. `CC(C)(NC(=O)NC1CCC(F)(F)CC1)C(=O)N[C@H](Cc1ccccc1)C(=O)C(=O)NCc1ccccn1` [Compound 301]: the IC50 is 0.0092 ± 0.0004 µM. The same measure, in the same setting: under `CC(C)(NC(=O)N1CCC(F)(F)CC1)C(=O)N[C@H](Cc1ccccc1)C(=O)C(=O)NCc1ccccn1` [Compound 302] stands 0.0415 ± 0.0009 µM. Same read-out and setting: under `CC(C)(NC(=O)NCC1CCC(F)(F)CC1)C(=O)N[C@H](Cc1ccccc1)C(=O)C(=O)NCc1ccccn1` [Compound 303] stands 0.0107 ± 0.001 µM.

For the molecule `O=C(CNC(=O)N1CCC(F)(F)CC1)N[C@H](Cc1ccccc1)C(=O)C(=O)NCc1ccccn1` [Compound 304], the IC50 was determined as 0.0538 ± 0.0058 µM. Turning to `O=C(CNC(=O)NC1CCC(F)(F)CC1)N[C@H](Cc1ccccc1)C(=O)C(=O)NCc1ccccn1` [Compound 305], the IC50 is 0.0243 ± 0.0004 µM.

Regarding `O=C(N[C@@H](C1CC1)C(F)(F)F)NC1(C(=O)N[C@H](Cc2ccccc2)C(=O)C(=O)NCc2ccccn2)CCC1` [Compound 306], the IC50 came out at 0.0193 ± 0.001 µM.

As to `O=C(N[C@H](C1CC1)C(F)(F)F)NC1(C(=O)N[C@H](Cc2ccccc2)C(=O)C(=O)NCc2ccccn2)CCC1` [Compound 307], the IC50 worked out at 0.026 ± 0.0021 µM. Take `O=C(NCc1ccccn1)C(=O)[C@@H](Cc1ccccc1)NC(=O)[C@H]1CC2CCCCC2N1C(=O)NCC1CC(F)(F)C1` (stereo partly drawn) [Compound 308]: the IC50 was found to be 0.0139 ± 0.0012 µM. With `O=C(NCc1ccccn1)C(=O)[C@@H](Cc1ccccc1)NC(=O)[C@H]1CC2CCCCC2N1C(=O)N1CCC(F)(F)CC1` (stereo partly drawn) [Compound 309], the IC50 stood at 0.0194 µM. Take `O=C(NCc1ccccn1)C(=O)[C@@H](Cc1ccccc1)NC(=O)[C@H]1Cc2ccccc2CN1C(=O)NCC1CC(F)(F)C1` [Compound 310]: the IC50 is 0.0124 µM. As to `O=C(NCc1ccccn1)C(=O)[C@@H](Cc1ccccc1)NC(=O)[C@H]1Cc2ccccc2CN1C(=O)N1CCC(F)(F)CC1` [Compound 311], the IC50 is 0.0167 ± 0.0006 µM. Take `O=C(NCc1ccccn1)C(=O)[C@@H](Cc1ccccc1)NC(=O)[C@H]1Cc2ccccc2CN1C(=O)OC1CCC(F)(F)CC1` [Compound 312]: the IC50 stood at 0.0145 ± 0.0001 µM. Turning to `O=C(NC1(C(=O)N[C@H](Cc2ccccc2)C(=O)C(=O)NCc2ccccn2)CCC1)OCC1CCC(F)(F)CC1` [Compound 313, (4,4-difluorocyclohexyl)methyl(R)-(1-((3,4-dioxo-1-phenyl-4-((pyridin-2-ylmethyl)amino)butan-2-yl)carbamoyl)cyclobutyl) carbamate], the IC50 was 0.016 ± 0.002 µM. On the same count and under the same terms, as for `O=C(NC1(C(=O)N[C@H](Cc2ccccc2)C(=O)C(=O)NCc2ccccn2)CCC1)OC1CCC(F)(F)CC1` [Compound 314], the figure is 0.0124 ± 0.0003 µM; as for `O=C(NC1(C(=O)N[C@H](Cc2ccccc2)C(=O)C(=O)NCc2ccccn2)CCC1)O[C@H]1CO[C@H]2OCC[C@H]21` [Compound 315], 0.0202 ± 0.0033 µM; as for `C[C@@H](NC(=O)OCc1ccccc1)C(=O)N[C@H](Cc1ccccc1)C(=O)C(=O)NCc1ccccn1` [Compound 316], 0.0159 ± 0.0004 µM. Take `O=C(NCc1ccccn1)C(=O)[C@@H](Cc1ccccc1)NC(=O)C1(C(=O)NC2CCC(F)(F)CC2)CC1` [Compound 319]: the 50% inhibitory concentration (IC50) amounted to 0.0371 ± 0.0029 µM. For `O=C(NCc1ccccn1)C(=O)[C@@H](Cc1ccccc1)NC(=O)C1(C(=O)NCC2CCC(F)(F)CC2)CC1` [Compound 320], the IC50 was 0.0167 ± 0.0003 µM.

Take `O=C(NCc1ccccn1)C(=O)[C@@H](Cc1ccccc1)NC(=O)C1(C(=O)NCc2cnccn2)CC1` [Compound 321]: the IC50 amounted to 0.166 ± 0.0026 µM. Take `O=C(NCc1ccccn1)C(=O)[C@@H](Cc1ccccc1)NC(=O)C1(C(=O)Nc2ccc(F)cc2)CC1` [Compound 322]: the IC50 is 0.125 ± 0.006 µM.

For the molecule `CC(C)(C(=O)NC1CCC(F)(F)CC1)C(=O)N[C@H](Cc1ccccc1)C(=O)C(=O)NCc1ccccn1` [Compound 323], the IC50 was 0.0307 ± 0.0019 µM. Regarding `CC(C)(C(=O)N[C@H](Cc1ccccc1)C(=O)C(=O)NCc1ccccn1)C(=O)N1CCC(C(F)(F)F)CC1` [Compound 325], the IC50 was 0.177 ± 0.0025 µM. `CC(C)(C(=O)N[C@H](Cc1ccccc1)C(=O)C(=O)NCc1ccccn1)n1cc(-c2ccccc2)cn1` [Compound 326, (R)-3-(2-methyl-2-(4-phenyl-1H-pyrazol-1-yl)propionamido)-2-oxo-4-phenyl-N-(pyridin-2-ylmethyl)butyramide]: the IC50 was determined as 0.0207 ± 0.0005 µM. In the case of `CC(C)(C(=O)N[C@H](Cc1ccccc1)C(=O)C(=O)NCc1ccccn1)n1cc(Br)cn1` [Compound 327], the IC50 was found to be 0.245 ± 0.0027 µM. `CC(C)(C(=O)N[C@H](Cc1ccccc1)C(=O)C(=O)NCc1ccccn1)n1cc(-c2ccccc2F)cn1` [Compound 328]: the IC50 came to 0.0317 ± 0.0001 µM. Same read-out and setting: as for `CC(C)(C(=O)N[C@H](Cc1ccccc1)C(=O)C(=O)NCc1ccccn1)n1cc(-c2cccc(F)c2)cn1` [Compound 329], the figure is 0.0194 ± 0.0018 µM; as for `CC(C)(C(=O)N[C@H](Cc1ccccc1)C(=O)C(=O)NCc1ccccn1)n1cc(-c2ccc(F)cc2)cn1` [Compound 330], 0.195 ± 0.0145 µM. On to `C[C@@H](NS(=O)(=O)c1ccc(F)cc1)C(=O)N[C@H](Cc1ccccc1)C(=O)C(=O)NCc1ccccn1` [Compound 331, (R)-3-((R)-2-((4-fluorophenyl)sulfonamido)propionamido)-2-oxo-4-phenyl-N-(pyridin-2-ylmethyl)butyramide], for which the IC50 came out at 0.101 ± 0.0028 µM. On to `C[C@@H](NS(=O)(=O)c1cccnc1)C(=O)N[C@H](Cc1ccccc1)C(=O)C(=O)NCc1ccccn1` [Compound 332], for which the IC50 stood at 0.8883 ± 0.0012 µM. Turning to `C[C@@H](NC(=O)C1CCC(F)(F)CC1)C(=O)N[C@H](Cc1ccccc1)C(=O)C(=O)NCc1ccc(F)cn1` [Compound 336], the IC50 came out at 0.015 ± 0.0008 µM. Turning to `C[C@@H](NC(=O)C1CCC(F)(F)CC1)C(=O)N[C@H](Cc1ccccc1)C(=O)C(=O)NCc1ncccn1` [Compound 337], the IC50 came to 0.0879 ± 0.0146 µM.

Regarding `C[C@@H](NC(=O)C1CCC(F)(F)CC1)C(=O)N[C@H](Cc1ccccc1)C(=O)C(=O)NCc1ccncn1` [Compound 338], the IC50 amounted to 0.02 ± 0.0008 µM.

For the molecule `Cc1cccnc1CNC(=O)C(=O)[C@@H](Cc1ccccc1)NC(=O)[C@@H](C)NC(=O)C1CCC(F)(F)CC1` [Compound 340], the IC50 amounted to 0.0762 ± 0.0017 µM.

With `COc1ccnc(CNC(=O)C(=O)[C@@H](Cc2ccccc2)NC(=O)[C@@H](C)NC(=O)C2CCC(F)(F)CC2)c1` [Compound 342], the 50% inhibitory concentration (IC50) is 0.0222 ± 0.0002 µM.

In the case of `C[C@@H](NC(=O)C1CCC(F)(F)CC1)C(=O)N[C@H](Cc1ccccc1)C(=O)C(=O)NCc1cc(Cl)ccn1` [Compound 343], the IC50 came to 0.0183 ± 0.0007 µM. Same read-out and setting: under `C[C@@H](NC(=O)C1CCC(F)(F)CC1)C(=O)N[C@H](Cc1ccccc1)C(=O)C(=O)NCc1ccc(C(F)(F)F)cn1` [Compound 344] stands 0.8572 ± 0.0031 µM. Turning to `COc1ccc(CNC(=O)C(=O)[C@@H](Cc2ccccc2)NC(=O)[C@@H](C)NC(=O)C2CCC(F)(F)CC2)nc1` [Compound 345], the IC50 was 0.0609 ± 0.0047 µM. For `C[C@@H](NC(=O)C1CCC(F)(F)CC1)C(=O)N[C@H](Cc1ccccc1)C(=O)C(=O)NCc1cocn1` [Compound 350], the IC50 amounted to 0.042 ± 0.0037 µM. In the case of `C[C@@H](NC(=O)C1CCC(F)(F)CC1)C(=O)N[C@H](Cc1ccccc1)C(=O)C(=O)NCc1ccon1` [Compound 353], the IC50 was 0.8458 ± 0.0021 µM. As for `Cc1cnc(CNC(=O)C(=O)[C@@H](Cc2ccccc2)NC(=O)[C@@H](C)NC(=O)C2CCC(F)(F)CC2)s1` [Compound 356], the IC50 was 0.0431 ± 0.0001 µM. The same measure, in the same setting: under `C[C@@H](NC(=O)C1CCC(F)(F)CC1)C(=O)N[C@H](Cc1ccccc1)C(=O)C(=O)NCc1cscn1` [Compound 357] stands 0.0223 ± 0.0009 µM; under `CCC[C@@H](NC(=O)[C@@H](C)NC(=O)C1CCC(F)(F)CC1)C(=O)C(=O)NCc1ccccn1` [Compound 358], 0.0932 ± 0.0011 µM. For `C[C@@H](NC(=O)C1CCC(F)(F)CC1)C(=O)N[C@H](Cc1ccc(F)cc1)C(=O)C(=O)NCc1ccccn1` [Compound 359], the IC50 amounted to 0.0364 ± 0.0019 µM. On the same count and under the same terms, under `C[C@@H](NC(=O)C1CCC(F)(F)CC1)C(=O)N[C@H](Cc1cccc(F)c1)C(=O)C(=O)NCc1ccccn1` [Compound 360] stands 0.031 ± 0.0039 µM; under `C[C@@H](NC(=O)C1CCC(F)(F)CC1)C(=O)N[C@H](Cc1ccccc1F)C(=O)C(=O)NCc1ccccn1` [Compound 361], 0.0272 ± 0.0028 µM; under `C[C@@H](NC(=O)CC1CC(F)(F)C1)C(=O)N[C@H](Cc1ccco1)C(=O)C(=O)NCc1ccccn1` [Compound 364], 0.0751 ± 0.0001 µM.

As for `C[C@@H](NC(=O)C1CCC(F)(F)CC1)C(=O)N[C@H](CC1CCCCC1)C(=O)C(=O)NCc1ccccn1` [Compound 365], the IC50 came to 0.0231 ± 0.001 µM.
